Data from patent US4413005A, “Carbamate derivatives and insecticidal, miticidal or nematocidal compositions containing the same” (priority 1981, dated 1983).
Entries after “also recorded” stand apart in the source; their conditions may differ.

Tests used:
[1] = test system: tobacco cutworm (Spodoptera litura); experiment: Mortality of third-instar larvae of tobacco cutworm on cabbage (Test Example 1); type: in vivo; conditions: 72 h
Protocol: Ten third-instar larvae of tobacco cutworm (Spodoptera litura) were placed on a cabbage (one-month-old seedling) planted in a pot, and a 50% emulsion of the compound to be tested was diluted to a specified concentration and applied to the leaves of the plant to fully wet them. The test compound of each specified concentration was tested on two pots.

[2] = test system: green rice leafhopper (Nephotettix cincticeps); experiment: Mortality of female adults of green rice leafhopper on paddy rice (Test Example 2); type: in vivo; conditions: 72 h
Protocol: An emulsion of specified concentration was prepared from a 50% wettable powder of the compound to be tested and applied to the leaves of paddy rice (one-month-old seedlings) planted in a pot to fully wet the leaves. After the emulsion had been dried, the pot was covered with a net cage, into which 10 female adults of green rice leafhopper (Nephotettix cincticeps) were released. The compound of each specified concentration was tested on two pots.

[3] = test system: house fly (Musca domestica); experiment: Local application to house fly, LD50 by Probit method (Test Example 4); type: in vivo; conditions: topical, 24 h
Protocol: The compound to be tested was dissolved in a predetermined amount of acetone. The solution was diluted to various concentrations and locally applied to house fly (Musca domestica).

[4] = Acute oral toxicity in male mice, LD50 by Litchfield-Wilcoxon method (Test Example 5); conditions: mouse, in vivo, mortality on the seventh day
Protocol: Compounds of this invention were tested on male mice for acute toxicity by oral administration.

noxious insects = conditions: background statement, known; cited from earlier work
warm-blooded animals = conditions: background statement, known; cited from earlier work

| SMILES | mortality at 500 ppm [1] | mortality at 1000 ppm [1] | mortality at 2000 ppm [1] | mortality at 200 ppm [2] | mortality at 400 ppm [2] | mortality at 800 ppm [2] | LD50 [3] | LD50 at 168 h [4] | insecticidal activity (noxious insects) | toxicity to warm-blooded animals (warm-blooded animals) |
| --- | --- | --- | --- | --- | --- | --- | --- | --- | --- | --- |
| CCOC(=O)CN(SN(C)C(=O)Oc1cccc2c1OC(C)(C)C2)C(=O)CC [Example 43, 2,3-dihydro-2,2-dimethylbenzofuran-7-yl N-(N-propionyl-N-ethoxycarbonylmethylaminosulfenyl)-N-methyl-carbamate] | 70% | 85% | 100% | 60% | 85% | 100% | 14.4 mg/kg | 43 mg/kg |  |  |
| CCOC(=O)CN(SN(C)C(=O)Oc1cccc2c1OC(C)(C)C2)C(=O)OCC [Example 44, 2,3-dihydro-2,2-dimethylbenzofuran-7-yl N-(N-ethoxycarbonyl-N-ethoxycarbonylmethylaminosulfenyl)-N-methyl-carbamat] | 75% | 90% | 100% | 70% | 90% | 100% | 16.2 mg/kg | 128 mg/kg |  |  |
| CCOC(=O)CN(SN(C)C(=O)Oc1cccc2c1OC(C)(C)C2)C(=O)CCl [Example 45] | 75% | 90% | 100% | 65% | 90% | 100% | 29.2 mg/kg | 80 mg/kg |  |  |
| CCOC(=O)CN(SN(C)C(=O)Oc1cccc2c1OC(C)(C)C2)C(=O)c1ccccc1 [Example 46] | 70% | 85% | 100% | 65% | 85% | 100% | 33.2 mg/kg | 105 mg/kg |  |  |
| CCOC(=O)CN(SN(C)C(=O)Oc1cccc2c1OC(C)(C)C2)C(=O)c1ccc(Cl)cc1 [Example 47] | 65% | 80% | 100% | 60% | 75% | 95% | 57.8 mg/kg | 95 mg/kg |  |  |
| CCOC(=O)CN(SN(C)C(=O)Oc1cccc2c1OC(C)(C)C2)S(=O)(=O)c1ccc(C)cc1 [Example 48] | 65% | 80% | 100% | 60% | 75% | 95% | 58.6 mg/kg | 80 mg/kg |  |  |
| CCOC(=O)CN(SN(C)C(=O)Oc1cccc2c1OC(C)(C)C2)C(=O)OC [Example 49] | 75% | 90% | 100% | 70% | 90% | 100% | 15.7 mg/kg | 105 mg/kg |  |  |
| CCOC(=O)CN(SN(C)C(=O)Oc1cccc2c1OC(C)(C)C2)C(=O)Oc1ccccc1 [Example 50] | 65% | 80% | 100% | 60% | 75% | 95% | 34.7 mg/kg | 95 mg/kg |  |  |
| CCOC(=O)N(CCC#N)SN(C)C(=O)Oc1cccc2c1OC(C)(C)C2 [Example 51] | 70% | 85% | 100% | 65% | 85% | 100% | 45.3 mg/kg | 88 mg/kg |  |  |
| CCOC(=O)CCN(SN(C)C(=O)Oc1cccc2c1OC(C)(C)C2)C(=O)OCC [Example 52] | 70% | 85% | 100% | 65% | 85% | 100% | 54.3 mg/kg | 125 mg/kg |  |  |
| CNC(=O)Oc1cccc2c1OC(C)(C)C2 [carbofuran, 2,3-dihydro-2,2-dimethylbenzofuran-7-yl N-methyl-carbamate] |  |  |  |  |  |  |  | 5.6 mg/kg | high insecticidal activity; also recorded: highest insecticidal activity heretofore known | high toxicity to warm-blooded animals |
